{
  "source": "patent US20200024278A1",
  "about": "“COMPOSITION COMPRISING ANTIBIOTIC COMPOUND AND AN HETEROCYCLIC COMPOUND AND THEIR USE IN PREVENTING OR TREATING BACTERIAL INFECTIONS” (MUTABILIS, priority 2016, published 2020)",
  "key": {"[1]": {"test_system": "PAE UFR48", "assay": "MIC, broth microdilution (CLSI), substance alone or ATB combined with compound at 4 or 8 μg/mL", "format": "cell-based, P. aeruginosa", "settings": "PAE UFR48; for MIC ATB combined with compound: compound @8 μg/ml", "procedure,_shortened": "(§1)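 Per CLSI-M7-A7, MICs are determined in cation-adjusted Mueller-Hinton broth with a final inoculum of 5·10^5 CFU/mL. Plates incubate 16-20 h at 35° C in air and are read by eye. Fosfomycin assays carry 25 μg/ml glucose-6-phosphate.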"}, "[2]": {"test_system": "PAE 105250", "assay": "MIC, broth microdilution (CLSI), substance alone or ATB combined with compound at 4 or 8 μg/mL", "format": "cell-based, P. aeruginosa", "settings": "PAE 105250; for MIC ATB combined with compound: compound @8 μg/ml", "procedure,_shortened": "as §1"}, "[3]": {"test_system": "PAE UFR90", "assay": "MIC, broth microdilution (CLSI), substance alone or ATB combined with compound at 4 or 8 μg/mL", "format": "cell-based, P. aeruginosa", "settings": "PAE UFR90; for MIC ATB combined with compound: compound @8 μg/ml", "procedure,_shortened": "as §1"}, "[4]": {"test_system": "ECO 190317", "assay": "Fractional Inhibitory Concentration Index, checkerboard assay", "format": "cell-based, E. coli", "procedure": "(§2) Method 2: Determination of the Fractional Inhibitory Concentration Index\n(§3) Serial 2-fold dilutions of each antibiotic tested were prepared in ca-MHB and mixed in each well of a 96-well microtiter plate so that each row (and column) contained a fixed amount of one agent and increasing amounts of the second agent. The range of drug concentrations used in the checkerboard analysis was such that the dilution range encompassed the MIC for each drug used in the analysis. Broth microdilution plates were inoculated with each strain (Table 3) to yield 5.10^5 CFU/mL in a 100 μL final volume and incubated for 18 h at 35° C. in ambient air. Assays including Fosfomycin were supplemented with 25 μg/ml of Glucose-6-phosphate. MICs were determined after overnight incubation, and the fractional inhibitory concentration (FIC) index was calculated for each well. The FIC index (FICI) was calculated for each combination according to the equation FICI=FICa+FICb=(MIC of drug A in combination/MIC of drug A alone)+(MIC of drug B in combination/MIC of drug B alone). The FICI was interpreted as follows: synergy, FICI […]; indifference, 0.5<FIC<4; and antagonism, FICI>4. The checkerboard assays were performed in duplicate."}, "[5]": {"test_system": "PAE UFR48", "assay": "Fractional Inhibitory Concentration Index, checkerboard assay", "format": "cell-based, P. aeruginosa", "procedure": "as §2, §3"}, "[6]": {"test_system": "PAE UFR90", "assay": "Fractional Inhibitory Concentration Index, checkerboard assay", "format": "cell-based, P. aeruginosa", "procedure": "as §2, §3"}, "[7]": {"test_system": "ECL P99", "assay": "Fractional Inhibitory Concentration Index, checkerboard assay", "format": "cell-based, E. cloacae", "procedure": "as §2, §3"}, "[8]": {"test_system": "KPN BAA-1898", "assay": "MIC, broth microdilution (CLSI), substance alone or ATB combined with compound at 4 or 8 μg/mL", "format": "cell-based, K. pneumoniae", "settings": "Klebsiella pneumoniae, BAA1898; substance alone; KPN BAA-1898; read-out: MIC", "procedure,_shortened": "as §1"}, "[9]": {"test_system": "KPN UFR42", "assay": "MIC, broth microdilution (CLSI), substance alone or ATB combined with compound at 4 or 8 μg/mL", "format": "cell-based, K. pneumoniae", "settings": "Klebsiella pneumoniae; substance alone; KPN UFR42; read-out: MIC", "procedure,_shortened": "as §1"}, "[10]": {"test_system": "ECL P99", "assay": "MIC, broth microdilution (CLSI), substance alone or ATB combined with compound at 4 or 8 μg/mL", "format": "cell-based, E. cloacae", "settings": "Enterobacter cloacae; substance alone; ECL P99; read-out: MIC", "procedure,_shortened": "as §1"}, "[11]": {"test_system": "ECO 190317", "assay": "MIC, broth microdilution (CLSI), substance alone or ATB combined with compound at 4 or 8 μg/mL", "format": "cell-based, E. coli", "settings": "Escherichia coli; substance alone; ECO 190317; read-out: MIC", "procedure,_shortened": "as §1"}, "[12]": {"test_system": "ECO UFR39", "assay": "MIC, broth microdilution (CLSI), substance alone or ATB combined with compound at 4 or 8 μg/mL", "format": "cell-based, E. coli", "settings": "Escherichia coli; substance alone; ECO UFR39; read-out: MIC", "procedure,_shortened": "as §1"}, "[13]": {"test_system": "SPN 49619", "assay": "MIC, broth microdilution (CLSI), substance alone or ATB combined with compound at 4 or 8 μg/mL", "format": "cell-based, S. pneumoniae", "settings": "SPN 49619; for MIC ATB combined with compound: compound @8 μg/ml", "procedure,_shortened": "as §1"}, "[14]": {"test_system": "KPN UFR68", "assay": "Fractional Inhibitory Concentration Index, checkerboard assay", "format": "cell-based, K. pneumoniae", "procedure": "as §2, §3"}, "[15]": {"test_system": "SAU 29213", "assay": "MIC, broth microdilution (CLSI), substance alone or ATB combined with compound at 4 or 8 μg/mL", "format": "cell-based, S. aureus", "settings": "for MIC ATB combined with compound: compound @8 μg/ml, SAU 29213", "procedure,_shortened": "as §1"}, "[16]": {"settings": "Pseudomonas aeruginosa, substance alone, read-out: MIC"}},
  "data": [
    {"smiles": "NCCn1c2c(sc1=O)C1CN(C2)C(=O)N1OS(=O)(=O)[O-].[Na+]", "note": "(stereo not drawn) [Example 3, sodium and 2,2,2-trifluoroacetate [5-(2-azaniumethyl)-4,9-dioxo-3-thia-5,8,10-triaza-tricyclo[6.2.1.0^2,6]undec-2(6)-en-10-yl] sulfate]", "values": [
      {"measurement": "MIC ATB combined with compound", "setting": "[1]; ATB ATM", "value": 2, "unit": "µg/mL"},
      {"measurement": "MIC ATB combined with compound", "setting": "[1]; ATB FEP", "value": "<0.031", "unit": "µg/mL"},
      {"measurement": "MIC ATB combined with compound", "setting": "[1]; ATB FOS", "value": 2, "unit": "µg/mL"},
      {"measurement": "MIC ATB combined with compound", "setting": "[1]; ATB MEM", "value": "<=0.031 μg/mL"},
      {"measurement": "MIC ATB combined with compound", "setting": "[1]; ATB PIP", "value": "<0.031", "unit": "µg/mL"},
      {"measurement": "MIC", "setting": "[1]; [16]", "value": 8, "unit": "µg/mL"},
      {"measurement": "MIC ATB combined with compound", "setting": "[2]; ATB ATM", "value": "<0.031", "unit": "µg/mL"},
      {"measurement": "MIC ATB combined with compound", "setting": "[2]; ATB FEP", "value": "<0.031", "unit": "µg/mL"},
      {"measurement": "MIC ATB combined with compound", "setting": "[2]; ATB FOS", "value": 16, "unit": "µg/mL"},
      {"measurement": "MIC ATB combined with compound", "setting": "[2]; ATB MEM", "value": 0.063, "unit": "µg/mL"},
      {"measurement": "MIC ATB combined with compound", "setting": "[2]; ATB PIP", "value": 0.063, "unit": "µg/mL"},
      {"measurement": "MIC", "setting": "[2]; [16]", "value": 8, "unit": "µg/mL"},
      {"measurement": "MIC ATB combined with compound", "setting": "[3]; ATB ATM", "value": "<0.031", "unit": "µg/mL"},
      {"measurement": "MIC ATB combined with compound", "setting": "[3]; ATB FEP", "value": "<0.031", "unit": "µg/mL"},
      {"measurement": "MIC ATB combined with compound", "setting": "[3]; ATB FOS", "value": "<0.125", "unit": "µg/mL"},
      {"measurement": "MIC ATB combined with compound", "setting": "[3]; ATB MEM", "value": "<0.031", "unit": "µg/mL"},
      {"measurement": "MIC ATB combined with compound", "setting": "[3]; ATB PIP", "value": "<0.031", "unit": "µg/mL"},
      {"measurement": "MIC", "setting": "[3]; [16]", "value": 8, "unit": "µg/mL"},
      {"measurement": "FIC index min", "setting": "[4]; compound +ATM", "value": 0.27},
      {"measurement": "FIC index min", "setting": "[4]; compound +FEP", "value": 0.19},
      {"measurement": "FIC index min", "setting": "[4]; compound +FOS", "value": 0.66},
      {"measurement": "FIC index min", "setting": "[4]; compound +MEM", "value": 0.56},
      {"measurement": "FIC index min", "setting": "[4]; compound +PIP", "value": "≤0.5"},
      {"measurement": "FIC index min", "setting": "[5]; compound +ATM", "value": 0.13},
      {"measurement": "FIC index min", "setting": "[5]; compound +FEP", "value": 0.50},
      {"measurement": "FIC index min", "setting": "[5]; compound +FOS", "value": 0.34},
      {"measurement": "FIC index min", "setting": "[5]; compound +MEM", "value": 0.75},
      {"measurement": "FIC index min", "setting": "[5]; compound +PIP", "value": 0.31},
      {"measurement": "FIC index min", "setting": "[6]; compound +ATM", "value": 0.75},
      {"measurement": "FIC index min", "setting": "[6]; compound +FEP", "value": 0.32},
      {"measurement": "FIC index min", "setting": "[6]; compound +FOS", "value": 0.88},
      {"measurement": "FIC index min", "setting": "[6]; compound +MEM", "value": 0.75},
      {"measurement": "FIC index min", "setting": "[6]; compound +PIP", "value": 0.63},
      {"measurement": "FIC index min", "setting": "[7]; compound +ATM", "value": 0.28},
      {"measurement": "FIC index min", "setting": "[7]; compound +FEP", "value": 0.31},
      {"measurement": "FIC index min", "setting": "[7]; compound +FOS", "value": "≤0.13"},
      {"measurement": "FIC index min", "setting": "[7]; compound +MEM", "value": 0.54},
      {"measurement": "FIC index min", "setting": "[7]; compound +PIP", "value": 0.13},
      {"measurement": "MIC", "setting": "[8]", "value": 16, "unit": "µg/mL"},
      {"measurement": "MIC", "setting": "[9]", "value": 16, "unit": "µg/mL"},
      {"measurement": "MIC", "setting": "[10]", "value": 0.5, "unit": "µg/mL"},
      {"measurement": "MIC", "setting": "[11]", "value": 0.25, "unit": "µg/mL"},
      {"measurement": "MIC", "setting": "[12]", "value": 0.5, "unit": "µg/mL"},
      {"measurement": "MIC ATB combined with compound", "setting": "[13]; ATB ATM", "value": "<0.031", "unit": "µg/mL"},
      {"measurement": "MIC ATB combined with compound", "setting": "[13]; ATB FEP", "value": "<0.031", "unit": "µg/mL"},
      {"measurement": "MIC ATB combined with compound", "setting": "[13]; ATB FOS", "value": "<=0.125 μg/mL"},
      {"measurement": "MIC ATB combined with compound", "setting": "[13]; ATB MEM", "value": "<0.031", "unit": "µg/mL"},
      {"measurement": "MIC ATB combined with compound", "setting": "[13]; ATB PIP", "value": "<0.031", "unit": "µg/mL"},
      {"measurement": "MIC", "setting": "[13]; Streptococcus pneumoniae, substance alone, read-out: MIC", "value": 1, "unit": "µg/mL"},
      {"measurement": "FIC index min", "setting": "[14]; compound +ATM", "value": 0.049},
      {"measurement": "FIC index min", "setting": "[14]; compound +FEP", "value": 0.021},
      {"measurement": "FIC index min", "setting": "[14]; compound +FOS", "value": 0.080},
      {"measurement": "FIC index min", "setting": "[14]; compound +MEM", "value": 0.16},
      {"measurement": "FIC index min", "setting": "[14]; compound +PIP", "value": 0.10},
      {"measurement": "MIC ATB combined with compound", "setting": "[15]; ATB ATM", "value": ">32", "unit": "µg/mL"},
      {"measurement": "MIC ATB combined with compound", "setting": "[15]; ATB FEP", "value": 1, "unit": "µg/mL"},
      {"measurement": "MIC ATB combined with compound", "setting": "[15]; ATB FOS", "value": "<=0.125 μg/mL"},
      {"measurement": "MIC ATB combined with compound", "setting": "[15]; ATB MEM", "value": 0.063, "unit": "µg/mL"},
      {"measurement": "MIC ATB combined with compound", "setting": "[15]; ATB PIP", "value": 0.5, "unit": "µg/mL"},
      {"measurement": "MIC", "setting": "[15]; Staphylococcus aureus, substance alone, SAU 29213 (MSSA 29213), read-out: MIC", "value": 32, "unit": "µg/mL"}
    ]}
  ]
}
